{
  "source": "patent US10759813B2",
  "about": "“Neprilysin inhibitors” (THERAVANCE BIOPHARMA R&D IP, LLC, priority 2010, dated 2020)",
  "data": [
    {"molecular_target": "human neprilysin (EC 3.4.24.11; NEP) (Homo sapiens (Human), UniProt P08473)", "sequence (P08473 52-750)": "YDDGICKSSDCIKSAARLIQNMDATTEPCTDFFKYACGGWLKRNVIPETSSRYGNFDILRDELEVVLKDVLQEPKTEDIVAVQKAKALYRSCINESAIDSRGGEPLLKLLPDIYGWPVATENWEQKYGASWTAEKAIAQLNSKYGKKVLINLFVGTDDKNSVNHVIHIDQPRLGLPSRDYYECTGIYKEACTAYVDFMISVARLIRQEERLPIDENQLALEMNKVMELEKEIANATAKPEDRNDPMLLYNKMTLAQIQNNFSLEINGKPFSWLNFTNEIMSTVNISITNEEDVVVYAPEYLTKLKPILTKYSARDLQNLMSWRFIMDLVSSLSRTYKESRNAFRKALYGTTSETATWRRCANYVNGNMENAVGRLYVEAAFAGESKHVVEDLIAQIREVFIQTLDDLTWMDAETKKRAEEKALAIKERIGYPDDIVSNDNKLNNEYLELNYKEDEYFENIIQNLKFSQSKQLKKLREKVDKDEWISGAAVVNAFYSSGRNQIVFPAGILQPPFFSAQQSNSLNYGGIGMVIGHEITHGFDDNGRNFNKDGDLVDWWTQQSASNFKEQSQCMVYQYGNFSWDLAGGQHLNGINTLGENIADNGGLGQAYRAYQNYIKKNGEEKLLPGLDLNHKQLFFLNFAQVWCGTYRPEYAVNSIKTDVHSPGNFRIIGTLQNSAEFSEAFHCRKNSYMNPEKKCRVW", "assay": "In vitro enzyme inhibition assay at human NEP (fluorogenic peptide substrate)", "format": "biochemical", "settings": "pKi values at human NEP, recombinant human NEP", "procedure,_shortened": "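Recombinant human NEP preincubated 30 min at 37 °C with compound (10 μM down to pM), then 10 μM Mca-D-Arg-Arg-Leu-Dap-(Dnp)-OH in 50 mM HEPES pH 7.5, 100 mM NaCl, 0.01% Tween-20, 10 μM ZnSO4. Stopped after 20 min with acetic acid; fluorescence Ex320/Em405; Ki by nonlinear fit, reported as pKi.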", "units": {"Ki": "nM"}, "values": [
      {"compound": "O=C(N[C@H](Cc1ccc(-c2ccccc2)cc1)CC(O)C(=O)O)c1cc(C(=O)N2CCC(O)C2)n[nH]1", "note": "(stereo partly drawn) [Example 15-42, (R)-5-Biphenyl-4-yl-2-hydroxy-4-{[5-(3-hydroxypyrrolidine-1-carbonyl)-2H-pyrazole-3-carbonyl]-amino}-pentanoic acid]", "Ki": "≤ 1"},
      {"compound": "NC(=O)C1CCN(C(=O)c2cc(C(=O)N[C@H](Cc3ccc(-c4ccccc4)cc3)C[C@H](O)C(=O)O)[nH]n2)C1", "note": "(stereo partly drawn) [Example 15-44, (2S,4R)-5-Biphenyl-4-yl-4-{[5-(3-carbamoylpyrrolidine-1-carbonyl)-2H-pyrazole-3-carbonyl]-amino}-2-hydroxy-pentanoic acid]", "Ki": "1.26 to 10"},
      {"compound": "NC(=O)C1CCN(C(=O)c2cc(C(=O)N[C@H](Cc3ccc(-c4ccccc4)cc3)C[C@@H](O)C(=O)O)[nH]n2)C1", "note": "(stereo partly drawn) [Example 15-46, (2R,4R)-5-Biphenyl-4-yl-4-{[5-(3-carbamoylpyrrolidine-1-carbonyl)-2H-pyrazole-3-carbonyl]-amino}-2-hydroxy-pentanoic acid]", "pKi": "≥9.0"},
      {"compound": "O=C(N[C@H](Cc1ccc(-c2ccccc2)cc1)C[C@@H](O)C(=O)O)c1cc(C(=O)N2CCC(O)CC2)n[nH]1", "note": "[Example 15-48, (2R,4R)-5-Biphenyl-4-yl-2-hydroxy-4-{[5-(4-hydroxypiperidine-1-carbonyl)-2H-pyrazole-3-carbonyl]-amino}-pentanoic acid]", "pKi": "≥9.0"},
      {"compound": "O=C(N[C@H](Cc1ccc(-c2ccccc2)cc1)C[C@H](O)C(=O)O)c1cc(C(=O)N2CCC(O)CC2)n[nH]1", "note": "[Example 15-50, (2S,4R)-5-Biphenyl-4-yl-2-hydroxy-4-{[5-(4-hydroxypiperidine-1-carbonyl)-2H-pyrazole-3-carbonyl]-amino}-pentanoic acid]", "Ki": "12.6 to 100"},
      {"compound": "O=C(N[C@H](Cc1ccc(-c2ccccc2)cc1)CC(O)C(=O)O)c1cc(C(=O)N2CCOCC2)n[nH]1", "note": "(stereo partly drawn) [Example 15-53, (R)-5-Biphenyl-4-yl-2-hydroxy-4-{[5-(morpholine-4-carbonyl)-2H-pyrazole-3-carbonyl]amino}pentanoic acid]", "Ki": "1.26 to 10"},
      {"compound": "O=C(NC1CC1)c1cc(C(=O)N[C@H](Cc2ccc(-c3ccccc3)cc2)C[C@H](O)C(=O)O)[nH]n1", "note": "[Example 15-55, (2S,4R)-5-Biphenyl-4-yl-4-[(5-cyclopropylcarbamoyl-2H-pyrazole-3-carbonyl)-amino]-2-hydroxypentanoic acid]", "Ki": "12.6 to 100"},
      {"compound": "O=C(O)CNC(=O)c1cc(C(=O)N[C@H](Cc2ccc(-c3ccccc3)cc2)CC(O)C(=O)O)[nH]n1", "note": "(stereo partly drawn) [Example 15-56, (R)-5-Biphenyl-4-yl-4-{[5-(carboxymethyl-carbamoyl)-2H-pyrazole-3-carbonyl]-amino}-2-hydroxy-pentanoic acid]", "Ki": "1.26 to 10"},
      {"compound": "O=C(NC1CC1)c1cc(C(=O)N[C@H](Cc2ccc(-c3ccccc3)cc2)C[C@@H](O)C(=O)O)[nH]n1", "note": "[Example 15-57, (2R,4R)-5-Biphenyl-4-yl-4-[(5-cyclopropylcarbamoyl-2H-pyrazole-3-carbonyl)-amino]-2-hydroxypentanoic acid]", "pKi": "≥9.0"},
      {"compound": "NC(=O)c1cc(C(=O)N[C@H](Cc2ccc(-c3ccccc3)cc2)CC(O)C(=O)O)[nH]n1", "note": "(stereo partly drawn) [Example 15-59, (R)-5-Biphenyl-4-yl-4-[(5-carbamoyl-2H-pyrazole-3-carbonyl)-amino]-2-hydroxy-pentanoic acid]", "Ki": "1.26 to 10"},
      {"compound": "CNC(=O)c1cc(C(=O)N[C@H](Cc2ccc(-c3ccccc3)cc2)C[C@@H](O)C(=O)O)[nH]n1", "note": "[Example 15-60, (2R,4R)-5-Biphenyl-4-yl-2-hydroxy-4-[(5-methylcarbamoyl-2H-pyrazole-3-carbonyl)-amino]pentanoic acid]", "pKi": "≥9.0"},
      {"compound": "CCCNC(=O)c1cc(C(=O)N[C@H](Cc2ccc(-c3ccccc3)cc2)CC(O)C(=O)O)[nH]n1", "note": "(stereo partly drawn) [Example 15-61, (R)-5-Biphenyl-4-yl-2-hydroxy-4-[(5-propylcarbamoyl-2H-pyrazole-3-carbonyl)-amino]pentanoic acid]", "Ki": "≤ 1"},
      {"compound": "CN(C)C(=O)c1cc(C(=O)N[C@H](Cc2ccc(-c3ccccc3)cc2)C[C@@H](O)C(=O)O)[nH]n1", "note": "[Example 15-63, (2R,4R)-5-Biphenyl-4-yl-4-[(5-dimethylcarbamoyl-2H-pyrazole-3-carbonyl)-amino]-2-hydroxy-pentanoic acid]", "pKi": "≥9.0"},
      {"compound": "CC(C)CN(C)C(=O)c1cc(C(=O)N[C@H](Cc2ccc(-c3ccccc3)cc2)C[C@H](O)C(=O)O)[nH]n1", "note": "[Example 15-65, (2S,4R)-5-Biphenyl-4-yl-2-hydroxy-4-{[5-(isobutylmethyl-carbamoyl)-2H-pyrazole-3-carbonyl]amino}-pentanoic acid]", "Ki": "12.6 to 100"},
      {"compound": "CC(C)CN(C)C(=O)c1cc(C(=O)N[C@H](Cc2ccc(-c3ccccc3)cc2)C[C@@H](O)C(=O)O)[nH]n1", "note": "[Example 15-67, (2R,4R)-5-Biphenyl-4-yl-2-hydroxy-4-{[5-(isobutylmethyl-carbamoyl)-2H-pyrazole-3-carbonyl]amino}-pentanoic acid]", "pKi": "≥9.0"},
      {"compound": "O=C(NCCc1cnc[nH]1)c1cc(C(=O)N[C@H](Cc2ccc(-c3ccccc3)cc2)C[C@@H](O)C(=O)O)[nH]n1", "note": "[Example 15-69, (2R,4R)-5-Biphenyl-4-yl-2-hydroxy-4-({5-[2-(3H-imidazol-4-yl)-ethylcarbamoyl]-2H-pyrazole-3-carbonyl}amino)pentanoic acid]", "Ki": "12.6 to 100"},
      {"compound": "O=C(NCCO)c1cc(C(=O)N[C@H](Cc2ccc(-c3ccccc3)cc2)CC(O)C(=O)O)[nH]n1", "note": "(stereo partly drawn) [Example 15-70, (R)-5-Biphenyl-4-yl-2-hydroxy-4-{[5-(2-hydroxy-ethylcarbamoyl)-2H-pyrazole-3-carbonyl]-amino}-pentanoic acid]", "Ki": "1.26 to 10"},
      {"compound": "CN(C)CCNC(=O)c1cc(C(=O)N[C@H](Cc2ccc(-c3ccccc3)cc2)CC(O)C(=O)O)[nH]n1", "note": "(stereo partly drawn) [Example 15-71, (R)-5-Biphenyl-4-yl-4-{[5-(2-dimethylamino-ethylcarbamoyl)-2H-pyrazole-3-carbonyl]-amino}-2-hydroxy-pentanoic acid]", "Ki": "1.26 to 10"},
      {"compound": "O=C(N[C@H](Cc1ccc(-c2ccccc2)cc1)CC(O)C(=O)O)c1cc(C2CC2)n[nH]1", "note": "(stereo partly drawn) [Example 15-72, (R)-5-Biphenyl-4-yl-4-[(5-cyclopropyl-2H-pyrazole-3-carbonyl)-amino]-2-hydroxy-pentanoic acid]", "Ki": "12.6 to 100"},
      {"compound": "CC(C)c1cc(C(=O)N[C@H](Cc2ccc(-c3ccccc3)cc2)CC(O)C(=O)O)[nH]n1", "note": "(stereo partly drawn) [Example 15-73, (R)-5-Biphenyl-4-yl-2-hydroxy-4-[(5-isopropyl-2H-pyrazole-3-carbonyl)amino]-pentanoic acid]", "Ki": "12.6 to 100"},
      {"compound": "CCCc1cc(C(=O)N[C@H](Cc2ccc(-c3ccccc3)cc2)CC(O)C(=O)O)[nH]n1", "note": "(stereo partly drawn) [Example 15-74, (R)-5-Biphenyl-4-yl-2-hydroxy-4-[(5-propyl-2H-pyrazole-3-carbonyl)amino]-pentanoic acid]", "Ki": "12.6 to 100"},
      {"compound": "CCCCc1cc(C(=O)N[C@H](Cc2ccc(-c3ccccc3)cc2)CC(O)C(=O)O)[nH]n1", "note": "(stereo partly drawn) [Example 15-75, (R)-5-Biphenyl-4-yl-4-[(5-butyl-2H-pyrazole-3-carbonyl)-amino]-2-hydroxy-pentanoic acid]", "Ki": "1.26 to 10"},
      {"compound": "O=C(N[C@H](Cc1ccc(-c2ccccc2)cc1)CC(O)C(=O)O)c1cc(-c2ccccc2)n[nH]1", "note": "(stereo partly drawn) [Example 15-76, (R)-5-Biphenyl-4-yl-2-hydroxy-4-[(5-phenyl-2H-pyrazole-3-carbonyl)-amino]-pentanoic acid]", "Ki": "1.26 to 10"}
    ]}
  ]
}
